Results from patent publication US5776928A (priority 1995, dated 1998).

Tests used:
[1] = system: muscarinic cholinergic receptor; assay: pharmacological studies, muscarinic cholinergic receptor activity
rats = assay: in vivo observation in rats exposed to an overdose
clinical subjects = assay: clinical observation of pupils in clinical subjects; type: in vivo
[2] = detection of radiolabelled compound in saliva; type: in vivo
Protocol: For example, in the treatment of adult humans, dosages of from about 0.25 to 50 mg, preferably from 1 to 30 mg, and most preferably 1 to 20 mg per day may be used. A once a day dosage is normally sufficient, although divided doses may be administered. For treatment of a dyskinesia, a dose range of from 1 to 30 mg, preferably 1 to 20 mg per day is suitable.

5-HT1C receptor = assay: activity at the 5-HT1C receptor; conditions: anhydrous Form I

Row | SMILES | muscarinic cholinergic receptor activity [1] | salivation (rats) | pupilary effect (clinical subjects) | detection in the saliva [2] | activity at the 5-HT1C receptor (5-HT1C receptor)
1 | Cc1cc2c(s1)Nc1ccccc1N=C2N1CCN(C)CC1 | has muscarinic cholinergic receptor activity | significant salivation | pupilary constriction rather than the expected pupilary dilation | can be detected in the saliva | 
2 | Cc1cc2c(s1)Nc1ccccc1N=C2N1CCN(C)CC1 [anhydrous Form I compound] |  |  |  |  | active
